Data on two compounds can be found in patent US3950525A, “Relaxation of smooth muscle in a mammal” (Pfizer Inc., priority 1975, dated 1976).

A word on the inhibition: it is the percentage by which the read-out fell short of the control. Read a high inhibition as strong suppression.

In assay [1] the test system is collagen induced platelet aggregation. Briefly: In Vivo Inhibition of Platelet Aggregation (collagen induced aggregation in plasma of dosed dogs). Further details: species or system mongrel dogs. The settings on record: 25 mg./kg. P.O. The method, then:
The capacity of the compounds of the present invention to inhibit platelet aggregation in a modified in vivo test is measured by the following procedure: Unanesthetized fasted adult mongrel dogs of either sex are dosed orally (P.O.) or intravenously (I.V.) with the particular test compound. Blood samples are taken at hourly intervals and placed in plastic centrifuge tubes containing 0.1 volume 3% sodium citrate. Platelet-rich plasma is separated by centrifugation at 100 G for 10 minutes at 20° C. and treated with a collagen suspension in saline. The effect of two different levels of collagen concentration are examined; the first is a 1:20 dilution, i.e. 1 ml. of collagen suspension per 20 ml. of platelet-rich plasma (high dose), and the second, a 1:40-50 dilution (low dose). Changes in optical density are then followed with a Spectronic 20 colorimeter attached to a Houston Instrument TY Recorder. Platelet aggregation is indicated by a decrease in optical density. […] Measurements are carried out on the hourly samples, allowing for the determination of a duration of the initial effect.

For assay [2] the test system is unchanged. Briefly: In Vitro Inhibition of Platelet Aggregation (collagen induced, rabbit platelet-rich plasma). In kind it is cell-based. The settings on record: Oryctolagus cuniculus, 10 min; for inhibition at 6 µM: 6 × 10^^-6 mol./l.
The test system is the same in assay [3]. Briefly: In vitro Inhibition of Platelet Aggregation in Human Plasma (collagen induced). In kind it is cell-based. The settings on record: human platelet-rich plasma. The method, then: Anesthetized male rabbits are bled from a carotid artery into plastic centrifuge tubes containing 0.1 volume 3% sodium citrate. Platelet-rich plasma is separated by centrifugation at 100 G for 10 minutes at 20° C. Plasma from 3 animals is pooled; 5 ml. samples are placed into clear plastic curvettes and stirred at 1000 rpm, followed by the addition of compounds of the present invention at levels of 6 × 10^^-4 , 10^^-5 and 10^^-6 moles/liter. After 10 minutes of incubation with the platelet-rich plasma at room temperature, collagen, a protein known to cause platelet aggregation, is added (0.27 ml. collagen/4 ml. plasma) and changes in the optical density are followed with a Spectronic 20 colorimeter attached to a Houston Instrument TY Recorder. Platelet aggregation is indicated by a decrease in optical density. The relative potency of the compounds of the present invention are thus rated on their ability to inhibit (percent) collagen induced platelet aggregation.
The procedure of Example XLV is repeated except that platelet-rich plasma from nine human volunteers is employed in place of rabbit plasma. 4-(Diethylamino)-6-phenylpyrimidine hydrochloride provides the following inhibition (%) of collagen induced platelet aggregation at the indicated concentrations: […]

Assay [4] relates to histamine aerosol induced bronchoconstriction. Briefly: Bronchodilator Activity (protection of conscious guinea pigs against histamine aerosol). The settings on record: Cavia porcellus, 1 h; 60 mg./kg. oral; histamine challenge 60 minutes later; read-out: % Protection. In kind it is in vivo. The method, then:
Subsequent to this administration, each animal is challenged with histamine aerosol. […] Immediately after the container is subjected to the histamine spray the animal is placed within it. At the end of one minute of exposure, the respiratory status, which is a reflection of bronchoconstriction, is evaluated. Evaluation levels are designated and scored as normal breathing (0), slight deepened breathing (1), labored breathing (2), severely labored breathing and […] (3) and unconsciousness (4). Each group of animals contains 8 to 10 individual and a control group containing the same approximate number is used. […] The dose, which is given orally, is 60 mg./kg. and the animals are challenged with histamine 60 minutes later.

Structures can show the parent of a compound that is named as a salt.

In turn, `CCN(CC)c1cc(-c2ccccc2)ncn1.Cl` [Ar=C6H5; R1=C2H5; R2=C2H5; R3=H, 4-Diethylamino-6-phenylpyrimidine hydrochloride] yielded a Duration in assay [1] of 5 h. Besides, the “Inhibition to Collagen, High” value in assay [1] (high collagen (1:20 dilution)) is “Complete (complete (95-100%))”. Moreover, the “Inhibition to Collagen, Low” value in assay [1] (low collagen (1:40-50 dilution)) was “Complete (complete (95-100%))”. Further, the inhibition at 600 µM in assay [2] (6 × 10^^-4 mol./l.) is 99%. In assay [2], the inhibition at 6 µM was 99%. Besides, the “Mean % Inhibition” value in assay [3] (6 × 10^^-4 mol./l.) was determined as 73%; in assay [3] (6 × 10^^-5 mol./l.) it was 59%; in assay [3] (6 × 10^^-6 mol./l.), 52%; in assay [3] (6 × 10^^-7 mol./l.) it was 15%.

In the case of `CCN(CC)c1cc(-c2cccc(NC(C)=O)c2)ncn1` [Ar=3-CH3CONHC6H4; R1=C2H5; R2=C2H5; R3=H, 4-Diethylamino-6-(m-acetylaminopheny)pyrimidine hydrochloride], in assay [2] (6 × 10^^-5 mol./l.), the inhibition at 60 µM came out at 16%. Besides, in assay [2], the inhibition at 6 µM came to 14%. Besides, the inhibition in vivo at 60 mg/kg in assay [4] was determined as 40%.
